Laboratory results from US20220119354A1, “DIAMINO-SUBSTITUTED PYRIDINES AND PYRIMIDINES AS HERBICIDES” (FMC Corporation, priority 2019, published 2022).

Experiments:
Format in all cases: in vivo
[1] = system: barnyardgrass (Echinochloa crus-galli); assay: Test A preemergence, barnyardgrass; details: 0 to 100 scale; for Barnyardgrass plant response rating: 0 is no effect, 100 is complete control
Summary of the method: (§1)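 Steps: plant seeds in loam/sand; spray soil (pre) or seedlings at 1–2 leaves, 2–10 cm (post) with compound in solvent plus surfactant; keep in greenhouse ~10 d; score injury visually against untreated controls, 0–100.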

[2] = system: kochia (Kochia scoparia); assay: Test A preemergence, kochia; details: 0 to 100 scale; for Kochia plant response rating: 0 is no effect, 100 is complete control
Summary of the method: as §1

[3] = system: ragweed (common ragweed, Ambrosia elatior); assay: Test A preemergence, ragweed; details: 0 to 100 scale; for Ragweed plant response rating: 0 is no effect, 100 is complete control
Summary of the method: as §1

[4] = system: ryegrass, Italian (Lolium multiflorum); assay: Test A preemergence, Italian ryegrass; details: 0 to 100 scale; for Ryegrass, Italian plant response rating: 0 is no effect, 100 is complete control
Summary of the method: as §1

[5] = system: foxtail, giant (Setaria faberii); assay: Test A preemergence, giant foxtail; details: 0 to 100 scale; for Foxtail, Giant plant response rating: 0 is no effect, 100 is complete control
Summary of the method: as §1

[6] = system: pigweed (Amaranthus retroflexus); assay: Test A preemergence, pigweed; details: 0 to 100 scale; for Pigweed plant response rating: 0 is no effect, 100 is complete control
Summary of the method: as §1

[7] = system: barnyardgrass (Echinochloa crus-galli); assay: Test A postemergence, barnyardgrass; details: 0 to 100 scale
Summary of the method: as §1

[8] = system: kochia (Kochia scoparia); assay: Test A postemergence, kochia; details: 0 to 100 scale
Summary of the method: as §1

[9] = system: ragweed (common ragweed, Ambrosia elatior); assay: Test A postemergence, ragweed; details: 0 to 100 scale
Summary of the method: as §1

[10] = system: ryegrass, Italian (Lolium multiflorum); assay: Test A postemergence, Italian ryegrass; details: 0 to 100 scale
Summary of the method: as §1

[11] = system: foxtail, giant (Setaria faberii); assay: Test A postemergence, giant foxtail; details: 0 to 100 scale
Summary of the method: as §1

[12] = system: pigweed (Amaranthus retroflexus); assay: Test A postemergence, pigweed; details: 0 to 100 scale
Summary of the method: as §1

[13] = system: wheat (Triticum aestivum); assay: Test A postemergence, wheat; details: 0 to 100 scale
Summary of the method: as §1

[14] = system: corn (Zea mays); assay: Test A postemergence, corn; details: 0 to 100 scale
Summary of the method: as §1

[15] = system: blackgrass (Alopecurus myosuroides); assay: Test A postemergence, blackgrass; details: 0 to 100 scale
Summary of the method: as §1

[16] = system: galium (catchweed bedstraw, Galium aparine); assay: Test A postemergence, galium; details: 0 to 100 scale
Summary of the method: as §1

[17] = system: rice (Oryza sativa); assay: Test B flooded paddy test, rice; details: Flood, 250 g ai/ha, applied to paddy water, 2-leaf stage, visual evaluation after 13 to 15 d
Summary of the method: (§2)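 Application was made into paddy water of pots flooded 3 cm deep at treatment, with seedlings at the 2-leaf stage. That flood level was kept throughout, and plants stayed under glass 13 to 15 d before visual assessment on a 0–100 control scale.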

[18] = system: sedge, umbrella (small-flower umbrella sedge, Cyperus difformis); assay: Test B flooded paddy test, umbrella sedge; details: Flood, 250 g ai/ha, applied to paddy water, 2-leaf stage, visual evaluation after 13 to 15 d
Summary of the method: as §2

[19] = system: ducksalad (Heteranthera limosa); assay: Test B flooded paddy test, ducksalad; details: Flood, 250 g ai/ha, applied to paddy water, 2-leaf stage, visual evaluation after 13 to 15 d
Summary of the method: as §2

[20] = system: barnyardgrass (Echinochloa crus-galli); assay: Test B flooded paddy test, barnyardgrass; details: Flood, 250 g ai/ha, applied to paddy water, 2-leaf stage, visual evaluation after 13 to 15 d
Summary of the method: as §2

[21] = 125 g ai/ha, 0 no effect, 100 complete control
[22] = 500 g ai/ha, 0 no effect, 100 complete control

## C[C@H](Nc1ncc(C(F)(F)F)c(N)n1)c1cc2ccccc2n1C [Compound 76]
[1]; 125 g ai/ha
  Barnyardgrass plant response rating: 0
[1]; 500 g ai/ha
  Barnyardgrass plant response rating: 0
[2]; 125 g ai/ha
  Kochia plant response rating: 0
[2]; 500 g ai/ha
  Kochia plant response rating: 0
[3]; 125 g ai/ha
  Ragweed plant response rating: 0
[3]; 500 g ai/ha
  Ragweed plant response rating: 0
[4]; 125 g ai/ha
  Ryegrass, Italian plant response rating: 0
[4]; 500 g ai/ha
  Ryegrass, Italian plant response rating: 30
[5]; 125 g ai/ha
  Foxtail, Giant plant response rating: 0
[5]; 500 g ai/ha
  Foxtail, Giant plant response rating: 0
[6]; 125 g ai/ha
  Pigweed plant response rating: 0
[6]; 500 g ai/ha
  Pigweed plant response rating: 0
[7]; [21]
  Plant response rating, Barnyardgrass: 0
[7]; [22]
  Plant response rating, Barnyardgrass: 0
[8]; [21]
  Plant response rating, Kochia: 0
[8]; [22]
  Plant response rating, Kochia: 0
[9]; [21]
  Plant response rating, Ragweed: 0
[9]; [22]
  Plant response rating, Ragweed: 30
[10]; [21]
  Plant response rating, Ryegrass, Italian: 0
[10]; [22]
  Plant response rating, Ryegrass, Italian: 0
[11]; [21]
  Plant response rating, Foxtail, Giant: 0
[11]; [22]
  Plant response rating, Foxtail, Giant: 0
[12]; [21]
  Plant response rating, Pigweed: 0
[12]; [22]
  Plant response rating, Pigweed: 0
[13]; [21]
  Plant response rating, Wheat: 0
[13]; [22]
  Plant response rating, Wheat: 0
[14]; [21]
  Plant response rating, Corn: 0
[14]; [22]
  Plant response rating, Corn: 0
[15]; [21]
  Plant response rating, Blackgrass: 0
[15]; [22]
  Plant response rating, Blackgrass: 0
[16]; [21]
  Plant response rating, Galium: 30
[16]; [22]
  Plant response rating, Galium: 30
[17]
  Plant response rating, Rice (0 to 100 scale, 0 is no effect, 100 is complete control): 0
[18]
  Plant response rating, Sedge, Umbrella (0 to 100 scale, 0 is no effect, 100 is complete control): 0
[19]
  Plant response rating, Ducksalad (0 to 100 scale, 0 is no effect, 100 is complete control): 0
[20]
  Plant response rating, Barnyardgrass (0 to 100 scale, 0 is no effect, 100 is complete control): 0

## CC(Nc1ncc(C(F)(F)F)c(N)n1)C1Cc2ccccc2C1 (racemic) [Compound 6]
[1]; 125 g ai/ha
  Plant response rating, Barnyardgrass: 0
[1]; 500 g ai/ha
  Plant response rating, Barnyardgrass: 60
[2]; 125 g ai/ha
  Plant response rating, Kochia: 80
[2]; 500 g ai/ha
  Plant response rating, Kochia: 100
[3]; 125 g ai/ha
  Plant response rating, Ragweed: 30
[3]; 500 g ai/ha
  Plant response rating, Ragweed: 100
[4]; 125 g ai/ha
  Plant response rating, Ryegrass, Italian: 30
[4]; 500 g ai/ha
  Plant response rating, Ryegrass, Italian: 70
[5]; 125 g ai/ha
  Plant response rating, Foxtail, Giant: 90
[5]; 500 g ai/ha
  Plant response rating, Foxtail, Giant: 100
[6]; 125 g ai/ha
  Plant response rating, Pigweed: 100
[6]; 500 g ai/ha
  Plant response rating, Pigweed: 100
[7]; 125 g ai/ha
  Plant response rating, Barnyardgrass: 10
[7]; 500 g ai/ha
  Plant response rating, Barnyardgrass: 10
[8]; 125 g ai/ha
  Plant response rating, Kochia: 70
[8]; 500 g ai/ha
  Plant response rating, Kochia: 90
[9]; 125 g ai/ha
  Plant response rating, Ragweed: 20
[9]; 500 g ai/ha
  Plant response rating, Ragweed: 40
[10]; 125 g ai/ha
  Plant response rating, Ryegrass, Italian: 0
[10]; 500 g ai/ha
  Plant response rating, Ryegrass, Italian: 20
[11]; 125 g ai/ha
  Plant response rating, Foxtail, Giant: 0
[11]; 500 g ai/ha
  Plant response rating, Foxtail, Giant: 20
[12]; 125 g ai/ha
  Plant response rating, Pigweed: 90
[12]; 500 g ai/ha
  Plant response rating, Pigweed: 100
[13]; 125 g ai/ha
  Plant response rating, Wheat: 0
[13]; 500 g ai/ha
  Plant response rating, Wheat: 0
[14]; 125 g ai/ha
  Plant response rating, Corn: 0
[14]; 500 g ai/ha
  Plant response rating, Corn: 20
[15]; 125 g ai/ha
  Plant response rating, Blackgrass: 0
[15]; 500 g ai/ha
  Plant response rating, Blackgrass: 10
[16]; 125 g ai/ha
  Plant response rating, Galium: 40
[16]; 500 g ai/ha
  Plant response rating, Galium: 70
[17]
  Plant response rating, Rice (0 to 100 scale, 0 is no effect, 100 is complete control): 0
[18]
  Plant response rating, Sedge, Umbrella (0 to 100 scale, 0 is no effect, 100 is complete control): 0
[19]
  Plant response rating, Ducksalad (0 to 100 scale, 0 is no effect, 100 is complete control): 0
[20]
  Plant response rating, Barnyardgrass (0 to 100 scale, 0 is no effect, 100 is complete control): 0
